We go through one molecule from paper PMC2992995, “Characterization and Online Detection of Surfactin Isomers Based on HPLC-MS^n Analyses and Their Inhibitory Effects on the Overproduction of Nitric Oxide and the Release of TNF-α and IL-6 in LPS-Induced Macrophages” (Marine Drugs, 2010).

What all share (type): cell-based, murine
The subject of experiment [1] is IL-6 production induced by LPS in RAW264.7 cells. In words: Inhibition of IL-6 release induced by LPS (ELISA). Particulars: LPS 1 μg/mL, 6 h, samples 1–30 μM, mouse IL-6 ELISA of culture supernatant, means of four experiments. On the procedure:
(§1) RAW264.7 cells were incubated in RPMI 1640 medium supplemented with penicillin (100 U/mL), streptomycin (100 μg/mL) and 10% heat inactivated fetal bovine serum at 37 °C in a humidified incubator with 5% CO2.
Cells were treated by LPS (1 μg/mL) with or without samples (1–9, 1–30 μM) for 6 h. 100 μL of the culture supernatant was taken out to determine the level of TNF-α and IL-6 using respective enzyme-linked immunosorbent assay kit according to the manufacturer’s recommendations. Hydrocortisone was used as positive control.
(An ELISA detects its analyte on a solid surface through an enzyme-linked reagent.)

Experiment [2] relates to TNF-α production induced by LPS in RAW264.7 cells. Put plainly: Inhibition of TNF-α release induced by LPS (ELISA). Particulars: LPS 1 μg/mL, 6 h, samples 1–30 μM, mouse TNF-α ELISA of culture supernatant, means of four experiments. Here is the method:
as §1
[…] 100 μL of the culture supernatant was taken out to determine the level of TNF-α and IL-6 using respective enzyme-linked immunosorbent assay kit according to the manufacturer’s recommendations. Hydrocortisone was used as positive control.

Experiment [3] deals with NO production induced by LPS in RAW264.7 cells. Put plainly: Inhibition of NO production induced by LPS (Griess nitrite assay). Particulars: Mus musculus, LPS 1 μg/mL, 24 h, samples 1–30 μM, Griess reagent, means of four experiments. On the procedure:
as §1
Nitric oxide was determined by measuring the amount of nitrite in the cell culture supernatant, using Griess reagent (mixture of equal volume of reagent A and reagent B, (A): 1% sulphanilamide; (B): 0.1% naphthylethylene diamine dihydrochloride in 10% H3PO4). Hydrocortisone was used as positive control. RAW264.7 cells were treated by lipopolysaccharides (LPS, 1 μg/mL) with or without samples (1–9, 1–30 μM) for 24 h, then briefly centrifuged. 100 μL of the cell culture supernatant were mixed with 100 μL of Griess reagent, followed by incubation for 10 min at room temperature. The absorbance at 540 nm was measured and the inhibitory rates were calculated by using a standard calibration curve prepared from different concentrations of sodium nitrite.
Background: Nitrite, measured by Griess reagent, commonly stands in for NO production.

Usually IC50 stands for the concentration that inhibits the measured activity by half. Low readings indicate higher potency, high ones lower potency.

With `C[C@]12CCC(=O)C=C1CC[C@@H]1[C@@H]2[C@@H](O)C[C@@]2(C)[C@H]1CC[C@]2(O)C(=O)CO` [Hydrocortisone], the IC50 in experiment [1] was 63.9 µM; in experiment [2], 85.6 µM; in experiment [3], 64.3 µM.
